Results as given in US20050101673A1, “Use of orally available prostacyclin derivatives for the production of a pharmaceutical agent for treating diseases that are associated with bone marrow edemas” (Schering AG, priority 2002, published 2005).

What was measured:
[1] = tested on: patients with osteonecrosis or osteoarthritis of the knee; assay: Random, double-blind comparison study of oral iloprost versus Tramadol; assay type: in vivo, human
Description: To confirm the action of oral iloprost on the bone marrow edema and the pain, a random, double-blind comparison study was performed on the opiate Tramadol® in 41 patients with osteonecrosis or osteoarthritis of the knee in the period from March 2001 to November 2002 according to the GCP guidelines.
Patients of both sexes with resting pain because of an osteonecrosis or osteoarthritis were included in the study if the following criteria were met: • Age between 19 and 60 years, • Bone marrow edema found by means of MRT according to specified criteria.
The treatment was carried out either with iloprost capsules or with outwardly indistinguishable Tramadol capsules that were packaged and characterized according to valid GLP rules. Each capsule contained either 50 μg of iloprost or 50 mg of Tramadol®.
During the first three days of treatment, the study medication was administered in a dosage of 3×1 capsules during the day, which starting on day 4 could be increased individually to increase the success of the therapy (alleviation of pain) up to a maximum dose of 3×2 capsules during the day. In the case of poor tolerance, the dosage could always be reduced to a minimum dose of 2×1 capsules during the day.
The treatment period was one month, followed by a follow-up observation period of two months during which no treatment was given. Previously administered pain-relieving medications should be discontinued before the beginning of the study.
The clinical action of the treatment was determined based on the following parameters: • Evaluation of the intensity of the resting pain and the activity-related pain by the patient based on a 100 mm scale, whereby 0 means “no pain,” and 100 means “intolerable pain.” • Evaluation of the functional condition of the knee by means of Larson scores. • Evaluation of the bone marrow edema by means of MRT.

[2] = tested on: patients with painful bone marrow edema; assay: 28-day treatment of patients with painful bone marrow edema (summary statements); assay type: in vivo, human; conditions: 28-day oral treatment; for pain and articulation: follow-up two months after end of treatment
From the text: Treatment with orally available prostacyclin derivatives, especially with cyclodextrin clathrates of the prostacyclin derivatives of formula I, thus represents a novel therapy that not only suppresses the symptoms, i.e., the pain, but combats the causes of osteonecrosis and osteoarthritis and for the first time can also be clinical, studied independently.
The β-cyclodextrin clathrate of iloprost, (5- {(1S,5S,6R,7R)-7-hydroxy-6-[(E)-(3R,4RS)-3-hydroxy-4-methyl-oct-1-en-6-inyl]-bicyclo[3.3.0]octane-3-ylidene}pentanoic acid)-β-cyclodextrin clathrate, is especially suitable.

[3] = tested on: osteonecrosis; conditions: five-day intravenous infusion; cited from earlier work
[4] = after 28 days of treatment, persists 2 months without therapy
[5] = listed as iloprost β-cyclodextrin clathrate
[6] = listed as β-cyclodextrin clathrate of iloprost

SMILES: COc1cccc(C2(O)CCCCC2CN(C)C)c1 (centres unmarked) [Tramadol®, reference compound]
- activity-related pain, 100 mm visual analog scale [1, 4]: considerable reduction in pain
- resting pain, 100 mm visual analog scale [1, 4]: Almost complete freedom from pain
- knee activity score according to Larson (maximum score 100) ([1]; improvement persists 2 months without therapy): pronounced increase
- patients with complete degeneration of the bone marrow edema in at least one affected bone ([1]; one month treatment, MRT): 19%

SMILES: CC#CCC(C)[C@H](O)/C=C/[C@@H]1[C@H]2C/C(=C/CCCC(=O)O)C[C@H]2C[C@H]1O (stereo partly drawn) [oral iloprost, (5-{(1S,5S,6R,7R)-7-hydroxy-6-[(E)-(3R,4RS)-3-hydroxy-4-methyl-oct-1-en-6-inyl]-bicyclo[3.3.0]octane-3-ylidene}pentanoic acid)-β-cyclodextrin clathrate]
- pain and articulation [2, 5]: alleviation of pain and the improved articulation could be observed even two months after the end of treatment
- pain and articulation [2, 6]: significant improvement of the pain
- bone marrow edema [2, 5]: reduced not only the bone marrow edema
- structural integrity of the bone, necrotic areas and lesions [2, 5]: restored the structural integrity
- bone marrow edema [2, 6]: significant reduction of the bone marrow edema
- structural integrity of the bone, necrotic areas and lesions [2, 6]: healing of necroses

SMILES: CC#CCC(C)[C@H](O)/C=C/[C@@H]1[C@H]2C/C(=C/CCCC(=O)O)C[C@H]2C[C@H]1O.NC(CO)(CO)CO (some centres unmarked) [Ilomedin®, iloprost-trometamol]
- pain in osteonecrosis [3]: alleviation of pain in osteonecrosis can be achieved
